Test results reported in PubChem BioAssay (NCI).
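Five compound concentrations were applied to cells in 96-well plates for 48 hours; endpoints were derived by simple linear interpolation of the resulting dose-response curve. Definition used: TGI = concentration required for complete inhibition of growth.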

Assays:
Assay in all cases: NCI-60 cell line screen, 48 h
[1] = tested on: M19-MEL melanoma
[2] = tested on: SK-MEL-5 melanoma
[3] = tested on: SNB-78 CNS
[4] = tested on: HOP-62 NSCLC
[5] = tested on: HOP-92 NSCLC
[6] = tested on: NCI-H522 lung
[7] = tested on: DMS 114 small cell lung
[8] = tested on: SK-MEL-2 melanoma
[9] = tested on: NCI-H460 lung
[10] = tested on: OVCAR-4 ovarian
[11] = tested on: NCI-H23 lung
[12] = tested on: RXF 393 renal
[13] = tested on: SNB-19 CNS
[14] = tested on: SW-620 colon
[15] = tested on: KM20L2 colon
[16] = tested on: 786-0 renal
[17] = tested on: UO-31 renal
[18] = tested on: U251 CNS
[19] = tested on: SNB-75 CNS
[20] = tested on: TK-10 renal
[21] = tested on: HOP-18 NSCLC
[22] = tested on: LXFL 529 NSCLC
[23] = tested on: LOX IMVI melanoma
[24] = tested on: OVCAR-3 ovarian
[25] = tested on: MOLT-4 leukemia
[26] = tested on: HT29 colon
[27] = tested on: MALME-3M melanoma
[28] = tested on: OVCAR-5 ovarian
[29] = tested on: COLO 205 colon
[30] = tested on: A549 NSCLC
[31] = tested on: HCT-116 colon
[32] = tested on: OVCAR-8 ovarian
[33] = tested on: ACHN renal
[34] = tested on: SF-539 CNS
[35] = tested on: XF 498 CNS
[36] = tested on: K-562 leukemia
[37] = tested on: SN12C renal
[38] = tested on: EKVX NSCLC
[39] = tested on: KM12 colon
[40] = tested on: UACC-62 melanoma
[41] = tested on: SF-268 CNS
[42] = tested on: NCI-H226 lung
[43] = tested on: DLD-1 colon
[44] = tested on: SK-MEL-28 melanoma
[45] = tested on: UACC-257 melanoma
[46] = tested on: A498 renal
[47] = tested on: SF-295 CNS
[48] = tested on: SK-OV-3 ovarian
[49] = tested on: M14 melanoma
[50] = tested on: HCC-2998 colon
[51] = tested on: HCT-15 colon
[52] = tested on: CCRF-CEM leukemia
[53] = tested on: HL-60(TB) leukemia
[54] = tested on: DMS 273 small cell lung
[55] = tested on: RPMI-8226 leukemia
[56] = tested on: CAKI-1 renal
[57] = tested on: IGROV1 ovarian

Measured: TGI

C/C(=N\OCC(O)CNC(C)C)c1ccc2c(c1)NC(=O)CS2 (configuration not stated)
not listed: [53] | [54] | [55] | [56] | [57]
> 100 µM: all other assays above

CCCCCC(/C=C/[C@@H]1[C@H]2CC(=O)O[C@H]2C[C@H]1N1CCOCC1)OC1CCCO1 (some centres not stated)
not listed: [35] | [37]
> 100 µM: all other assays above
